Reference: patent US6352703B1, “Compositions and methods for detecting and killing termites” (Board of Supervisors of Louisiana State University and …, priority 1997, dated 2002)

How the values were obtained:
[1] = system: Mucor spp. fungus; assay: Antifungal filter paper disk test, trial 1 (Sabouraud dextrose agar); format: cell-based
Procedure: Mucor was isolated from a Formosan termite nest in our laboratory, a nest originally collected from a cottonwood tree in New Orleans, La. The fungus comprised a white mat that covered large areas of the nest that had been exposed to air and water. Fungus was scraped from the nest and suspended in distilled, de-ionized water with a Pasteur pipette. This suspension was streaked on Sabouraud dextrose agar (“SDA”) (Difco Laboratories, Detroit, Mich.) in 100×15 mm plates containing 20 mL SDA. Pure cultures were obtained from individual colonies on these plates as needed. Cultures were maintained on SDA plates in a 27° C. incubator without light until used.
Filter paper disks (Whatman #1, 1.5 cm) were treated with naphthalene, butylated hydroxytoluene (BHT), dioctyl phthalate, or adipic dioctyl ester, at rates of 2 μg, 20 μg, or 200 μg, dissolved in 100 μL hexane. Controls were treated with hexane alone. For each treatment, just prior to testing for antifungal properties, 1 mL of the hexane solution and ten filter paper disks were placed in a vial, and N2 was used to evaporate the hexane.
A suspension was prepared by scraping Mucor conidia (spores) from the culture plates, and mixing into distilled, deionized water with a Pasteur pipette. A thin layer of this suspension was spread over the surface of each of 130 SDA plates by placing each plate onto an inoculation turntable (Fisher Scientific, Hampton, N.H.), pipetting 0.2 mL of the suspension into the center of the plate, spinning the turntable, and spreading the suspension onto the agar with a bent glass rod. The plates were allowed to dry for two hours. A treated filter paper disk was then placed in the center of each plate (10 plates/treatment), and the plates were incubated at 27° C. The extent to which each filter paper disk was covered by fungus was determined by visual inspection (by the method described in greater detail below) after four, five, and six days.
(§1) Fungal growth on each filter paper disk was recorded by making tracings of the disks, inking in areas with visible fungal growth. The fraction of each disk covered by fungus was measured by making photocopy enlargements of these drawings, cutting out the enlarged disks, weighing the entire circle, cutting out the inked areas of the circle (corresponding to fungal growth), and weighing the latter. The fraction of each circle covered with fungus was then calculated as the ratio of these weights. (The weight of the photocopy toner was negligible.)
(§2) Coverage of filter paper disks was analyzed by the ANOVA procedure (SAS Institute, Version 6.11, Cary, N.C.). Tukey's Studentized Range (HSD) Test was used for comparison of mean separations (α=0.05).

[2] = system: Mucor spp. fungus; assay: Antifungal filter paper disk test, trial 2 (cornmeal agar, sealed plates); format: cell-based
Procedure: A second trial was conducted with filter papers treated with naphthalene, BHT, or 2,6-di-t-butyl-4-methyl-phenol (“DBP”). A fungal suspension was prepared as in the first trial. Spore concentrations were determined with a counting chamber (Petroff-Hauser, Hauser Scientific Partnership, Horsham, Pa.). Concentrations were adjusted to approximately 10^7 spores/mL. In the first trial fungus grew on SDA quickly, forming a thick mat that soon filled the entire petri dish. Therefore, in the second trial cornmeal agar (CMA, Difco Laboratories, Detroit, Mich.) was used to slow the growth of the fungus during the six-day observation period. A thin layer of the spore suspension was spread over the surface of each of 24 cornmeal agar plates using a turntable and bent glass rod, as previously described.
(§3) Filter paper disks were treated with naphthalene, BHT, or DBP at rates of 2 μg, 20 μg, or 200 μg, prepared as in the first trial. On each plate were placed four filter paper disks spaced equidistant from one another (one disk containing each of the three application rates of one of the test compounds, and one disk containing only the hexane control). Each plate was then covered and sealed with parafilm to reduce the release of volatile compounds. The concentration of naphthalene in the headspace was 0.04 μg/cm^3; except in trial 3 below, in which the concentration was 34.6 μg/cm^3, about 700 times the concentration we have observed in termite nest materials. The growth of fungus on and around each filter paper disk was recorded three, four, and five days after treatment. The experiment was then repeated, increasing the rates of naphthalene, BHT, and DBP to 200 μg, 600 μg, and 1000 μg (trial 3).
as §1, §2

[3] = system: Mucor spp. fungus; assay: Antifungal filter paper disk test, trial 3 (cornmeal agar, sealed plates, increased rates); format: cell-based
Procedure: A second trial was conducted with filter papers treated with naphthalene, BHT, or 2,6-di-t-butyl-4-methyl-phenol (“DBP”). A fungal suspension was prepared as in the first trial. Spore concentrations were determined with a counting chamber (Petroff-Hauser, Hauser Scientific Partnership, Horsham, Pa.). Concentrations were adjusted to approximately 10^7 spores/mL. In the first trial fungus grew on SDA quickly, forming a thick mat that soon filled the entire petri dish. […] A thin layer of the spore suspension was spread over the surface of each of 24 cornmeal agar plates using a turntable and bent glass rod, as previously described.
as §3, with “The growth of fungus on and around each filter paper disk was recorded three, four, and five days after treatment.” left out
as §1, §2

[4] = system: ants; assay: Killing of ants; details: in vivo
[5] = system: imported red fire ant, Solenopsis invicta Buren; assay: Effect of naphthalene on ants (tolerance comparison); format: in vivo; details: naphthalene concentrations causing no visible effect on termites
[6] = system: C. formosanus; details: in vivo
[7] = system: Formosan termites; assay: Feeding bioassay; format: in vivo, Coptotermes formosanus; details: ergosterol standard
Procedure: Sterols identified include 3-β-dihydrocholesterol; (24s)-stigmast-5-en-3-ol; and methyl(3-β,5-α)ergostan-3-ol. […] The bioassay was conducted according to the general procedures of U.S. application Ser. No. 08/243,950, filed May 17, 1994.

[8] = trial 2, 0 μg disk (hexane only) on the same sealed plate as the compound's treated disks
[9] = trial 3, 0 μg disk (hexane only) on the same sealed plate as the compound's treated disks

Compound	Fraction Covered, Day 4 (mean percentage of filter paper disk surface covered by fungus) ([1]; trial 1, rate 2 μg per disk) [%]	Fraction Covered, Day 5 (mean percentage of filter paper disk surface covered by fungus) ([1]; trial 1, rate 2 μg per disk) [%]	Fraction covered, Day 6 (mean percentage of filter paper disk surface covered by fungus) ([1]; trial 1, rate 2 μg per disk) [%]	Fraction Covered, Day 4 (mean percentage of filter paper disk surface covered by fungus) ([1]; trial 1, rate 20 μg per disk) [%]	Fraction Covered, Day 5 (mean percentage of filter paper disk surface covered by fungus) ([1]; trial 1, rate 20 μg per disk) [%]	Fraction covered, Day 6 (mean percentage of filter paper disk surface covered by fungus) ([1]; trial 1, rate 20 μg per disk) [%]	Fraction Covered, Day 4 (mean percentage of filter paper disk surface covered by fungus) ([1]; trial 1, rate 200 μg per disk) [%]	Fraction Covered, Day 5 (mean percentage of filter paper disk surface covered by fungus) ([1]; trial 1, rate 200 μg per disk) [%]	Fraction covered, Day 6 (mean percentage of filter paper disk surface covered by fungus) ([1]; trial 1, rate 200 μg per disk) [%]	Fraction Covered, Day 3 (mean percentage of filter paper disk surface covered by fungus) [2, 8] [%]	Fraction Covered, Day 4 (mean percentage of filter paper disk surface covered by fungus) [2, 8] [%]	Fraction Covered, Day 5 (mean percentage of filter paper disk surface covered by fungus) [2, 8] [%]	Fraction Covered, Day 3 (mean percentage of filter paper disk surface covered by fungus) ([2]; trial 2, rate 2 μg per disk) [%]	Fraction Covered, Day 4 (mean percentage of filter paper disk surface covered by fungus) ([2]; trial 2, rate 2 μg per disk) [%]	Fraction Covered, Day 5 (mean percentage of filter paper disk surface covered by fungus) ([2]; trial 2, rate 2 μg per disk) [%]	Fraction Covered, Day 3 (mean percentage of filter paper disk surface covered by fungus) ([2]; trial 2, rate 20 μg per disk) [%]	Fraction Covered, Day 4 (mean percentage of filter paper disk surface covered by fungus) ([2]; trial 2, rate 20 μg per disk) [%]	Fraction Covered, Day 5 (mean percentage of filter paper disk surface covered by fungus) ([2]; trial 2, rate 20 μg per disk) [%]	Fraction Covered, Day 3 (mean percentage of filter paper disk surface covered by fungus) ([2]; trial 2, rate 200 μg per disk) [%]	Fraction Covered, Day 4 (mean percentage of filter paper disk surface covered by fungus) ([2]; trial 2, rate 200 μg per disk) [%]	also measured
Cc1cc(C(C)(C)C)c(O)c(C(C)(C)C)c1 [BHT, butylated hydroxytoluene]	70	85	92	27	65	76	28	56	93	93	94	96	85	90	90	93	95	98	95	99	Fraction Covered, Day 5 (mean percentage of filter paper disk surface covered by fungus) ([2]; trial 2, rate 200 μg per disk): 100%; Fraction Covered, Day 3 (mean percentage of filter paper disk surface covered by fungus) [3, 9]: 59%; Fraction Covered, Day 4 (mean percentage of filter paper disk surface covered by fungus) [3, 9]: 100%; Fraction Covered, Day 5 (mean percentage of filter paper disk surface covered by fungus) [3, 9]: 100%; Fungal coverage of treated disks ([3]; trial 3, fourth day): ~100%; Fraction Covered, Day 3 (mean percentage of filter paper disk surface covered by fungus) ([3]; trial 3, rate 200 μg per disk): 30%; Fraction Covered, Day 4 (mean percentage of filter paper disk surface covered by fungus) ([3]; trial 3, rate 200 μg per disk): 96%; Fraction Covered, Day 5 (mean percentage of filter paper disk surface covered by fungus) ([3]; trial 3, rate 200 μg per disk): 95%; Fraction Covered, Day 3 (mean percentage of filter paper disk surface covered by fungus) ([3]; trial 3, rate 600 μg per disk): 53%; Fraction Covered, Day 4 (mean percentage of filter paper disk surface covered by fungus) ([3]; trial 3, rate 600 μg per disk): 97%; Fraction Covered, Day 5 (mean percentage of filter paper disk surface covered by fungus) ([3]; trial 3, rate 600 μg per disk): 100%; Fraction Covered, Day 3 (mean percentage of filter paper disk surface covered by fungus) ([3]; trial 3, rate 1000 μg per disk): 16%; Fraction Covered, Day 4 (mean percentage of filter paper disk surface covered by fungus) ([3]; trial 3, rate 1000 μg per disk): 99%; Fraction Covered, Day 5 (mean percentage of filter paper disk surface covered by fungus) ([3]; trial 3, rate 1000 μg per disk): 100%; Coverage of filter paper versus the DBP or naphthalene treatments ([3]; trial 3, three days after treatment, P=0.0001): significantly greater; Effectiveness at killing ants compared with naphthalene [4]: even more effective than naphthalene at killing ants
c1ccc2ccccc2c1 [Naphthalene, naphthalene]	71	86	98	64	97	100	90	92	100	98	99	95	100	99	100	98	98	99	100	100	Fraction Covered, Day 5 (mean percentage of filter paper disk surface covered by fungus) ([2]; trial 2, rate 200 μg per disk): 100%; Inhibition of growth of the fungus, comparison among compounds ([3]; of the five compounds tested): most effective at inhibiting the growth of this fungus; Fraction Covered, Day 3 (mean percentage of filter paper disk surface covered by fungus) [3, 9]: 0%; Fraction Covered, Day 4 (mean percentage of filter paper disk surface covered by fungus) [3, 9]: 0%; Fraction Covered, Day 5 (mean percentage of filter paper disk surface covered by fungus) [3, 9]: 0%; Fungal growth on filter paper disks ([3]; trial 3, all naphthalene treatments (0-1000 μg)): no fungal growth; Fungal growth on treated disks ([3]; trial 3, eight days after treatment): still free of fungus; Fungal growth on treated disks ([3]; trial 3, fourth day): still no growth; Fraction Covered, Day 3 (mean percentage of filter paper disk surface covered by fungus) ([3]; trial 3, rate 200 μg per disk): 0%; Fraction Covered, Day 4 (mean percentage of filter paper disk surface covered by fungus) ([3]; trial 3, rate 200 μg per disk): 0%; Fraction Covered, Day 5 (mean percentage of filter paper disk surface covered by fungus) ([3]; trial 3, rate 200 μg per disk): 0%; Fraction Covered, Day 3 (mean percentage of filter paper disk surface covered by fungus) ([3]; trial 3, rate 600 μg per disk): 0%; Fraction Covered, Day 4 (mean percentage of filter paper disk surface covered by fungus) ([3]; trial 3, rate 600 μg per disk): 0%; Fraction Covered, Day 5 (mean percentage of filter paper disk surface covered by fungus) ([3]; trial 3, rate 600 μg per disk): 0%; Fraction Covered, Day 3 (mean percentage of filter paper disk surface covered by fungus) ([3]; trial 3, rate 1000 μg per disk): 0%; Fraction Covered, Day 4 (mean percentage of filter paper disk surface covered by fungus) ([3]; trial 3, rate 1000 μg per disk): 0%; Fraction Covered, Day 5 (mean percentage of filter paper disk surface covered by fungus) ([3]; trial 3, rate 1000 μg per disk): 0%; Effect on ants [5]: paralyzed; Tolerance of C. formosanus to naphthalene compared with S. invicta [6]: significantly higher tolerance; Visible effect on termites [6]: no visible effect
CC(C)[C@@H](C)/C=C/[C@@H](C)[C@H]1CC[C@H]2C3=CC=C4C[C@@H](O)CC[C@]4(C)[C@H]3CC[C@]12C [ergosterol]	–	–	–	–	–	–	–	–	–	–	–	–	–	–	–	–	–	–	–	–	Feeding stimulation [7]: stimulated the feeding
